Entries after “also recorded” stand apart in the source; their conditions may differ.
What was measured:
[1] = 19F NMR pH titration of fluorinated indicators; format: physicochemical; conditions: for pK (theoretical titration curve, FIG. 2): 19F shift as a function of pH; for δ1 (limiting 19F shift difference of theoretical curve, FIG. 2) / δ2 (limiting 19F shift difference of theoretical curve, FIG. 2): shift difference between the two fluorine resonances
Description: The sample also contained Sodium Flouride as an internal chemical shift standard.
The shift for 5F NEAP-1 is referenced to the tetrafluorophthalate ^19 F resonance, while the data for 5F NEAP-2 and 5F NEAP-3 correspond to the shift differences between the two fluorine resonances. The theoretical curves correspond to: δ1 =35.6 ppm, δ2 24.7 ppm, pK=6.85 for 5F NEAP-1; δ1 =10.3 ppm, δ2 =-0.8 ppm, pK=6.6 for 5F NEAP-2; and δ1 =24.1, δ2 =13.4, pK=6.8 for 5F NEAP-3.
The magnitude of this shift, however, is insignificant in comparison to the 11 ppm titration shift of the indicator. In any event, the magnitude of this shift may be determined and corrected. In alternate embodiments, for an indicator such as NEAP-3 which contain a second fluorine to serve as a chemical shift reference both fluorines will experience a similar intracellular shift, making correction unnecessary. There is also exchange broadening of the resonance, which becomes more significant at higher magnetic field strengths. In general, the degree of broadening depends on the dissociation rate constant of the proton from the indicator. This rate is dependent on the particular indicator, on the temperature, and on the composition of the solution in which the indicator is placed. […] If the exchange is sufficiently rapid on the NMR time scale, i.e., the dissociation rate constant of the protonated indicator k-1 >>πΔv/√ 2, where Δv is the chemical shift difference of the resonance under study between the protonated and unprotonated forms of the indicator, then the observed chemical shift can be used to determine the intracellular pH according to the relation: [formula] where pK is the pK of the indicator, δo is the observed chemical shift, and δU and δP are the shifts of the unprotonated and fully protonated forms of the indicator, respectively. Although the above equation is expected to be generally adequate, at very high fields and low temperatures, the exchange might become slow enough to require a correction, as described, for example, in London, J. Magn. Reson. Series A 104, 190-196 (1993).

human erythrocytes [2] = test: pH measurement in human erythrocytes using 19F-NMR; format: cell-based
Protocol: (§1) FIGS. 3A and 3B show the ^19 F NMR spectra of human erythrocytes loaded with 5F NEAP-1 acetoxymethyl ester suspended in a solution containing 120 mM sodium chloride (NaCl) and 20 mM tris-[N-(2-hydroxyethyl)piperazine-N'-(2-ethanesulfonic acid)] ("tris-HEPES"). Tetrafluorophthalate ("TFPH") is also included as a chemical shift standard. […] The resonance associated with intracellular NEAP is denoted as "INTRA"; the resonance associated with extracellular NEAP is denoted as "EXTRA".
According to the present invention, intracellular pH can be determined using ^19 F NMR spectroscopy of cells containing a compound of Formula I or II. Measurements have been carried out on several physiological systems of interest, including, for example, human erythrocytes and perfused rat heart. The ^19 F NMR shifts of 5F NEAP-1, 5F NEAP-2, or 5F NEAP-3 provide information which is directly interpretable in terms of the cytosolic pH. These measurements can be made using any standard pulsed NMR spectrometer equipped with a fluorine NMR probe. Typically, at least 100 transients are required for the measurements.
III. pH Measurement in Human Erythrocytes Using ^19 F-NMR
(§2) As an illustration of the use of the current invention, the fluorinated indicator 5F NEAP-1 is used to determine the intra- and extracellular pH in a suspension of human erythrocytes. […] Based on the chemical shift difference between the NEAP fluorine resonance and the standard, an intracellular pH value of 7.3 for this preparation is determined. Subsequently, some additional 5F NEAP-1 was added as the free acid. […] It is interesting to note that the extracellular resonance is somewhat broader than the intracellular resonance. […] An extracellular pH value of 7.0 is determined from the shift (this situation is somewhat unusual since in more typical physiological preparations the intracellular pH is lower than the extracellular pH). As noted in the above sections, small errors which result from the intracellular shift displacement of 0.1-0.3 ppm, can be, but have not been accounted for. […]

human erythrocytes [3] = test: Membrane crossing of extracellular indicator in human erythrocyte suspension (19F NMR); format: in vitro ADME; conditions: free acid added extracellularly
Protocol: as §1, §2

[4] = referenced to the tetrafluorophthalate 19F resonance

| downfield 19F shift of the para-fluorine upon protonation of the nitrogen (titration shift) [1] | pK (theoretical titration curve, FIG. 2) [1] | pK ([1]; as stated in summary) | δ1 (limiting 19F shift of theoretical curve, FIG. 2) [1, 4] [ppm] | δ2 (limiting 19F shift of theoretical curve, FIG. 2) [1, 4] [ppm] | δ1 (limiting 19F shift difference of theoretical curve, FIG. 2) [1] [ppm] | δ2 (limiting 19F shift difference of theoretical curve, FIG. 2) [1] [ppm] | δ1 (limiting 19F shift difference of theoretical curve, FIG. 2) ([1]; unit not given) | δ2 (limiting 19F shift difference of theoretical curve, FIG. 2) ([1]; unit not given) | SMILES | extracellular pH determined with indicator (human erythrocytes [2]; free acid added to suspension, TFPH standard) | difference between intra- and extracellular pH giving well resolved NMR resonances (human erythrocytes [2]; intracellular vs extracellular resonance) [pH unit] | intracellular pH determined with indicator (human erythrocytes [2]; loaded 1 hour with acetoxymethyl ester, 120 mM NaCl, 20 mM tris-HEPES, TFPH standard) | crossing of the cell membrane (human erythrocytes [3]) | pH sensitivity of the fluorine resonances ([1]; FIG. 1) |
| --- | --- | --- | --- | --- | --- | --- | --- | --- | --- | --- | --- | --- | --- | --- |
| about 11 ppm | 6.85 | 6.8 | 35.6 | 24.7 |  |  |  |  | CCN(CC(=O)O)c1ccc(F)cc1OCC(=O)O [5F NEAP-1, N-ethyl-2-amino-5-fluorophenol-N,O-diacetic acid] | 7.0 | 0.3 | 7.3 | will not readily cross the cell membrane; also recorded: does not cross the cellular membrane in appreciable amounts |  |
|  | 6.6 |  |  |  | 10.3 | -0.8 |  |  | CCN(CC(=O)O)c1ccc(F)cc1OCc1ccc(C(=O)O)cc1F [5F NEAP-2, N-Ethyl-2-(2-fluoro-4-carboxybenzyloxy)-4-fluoroaniline-N-acetic acid] |  |  |  |  |  |
|  | 6.8 |  |  |  |  |  | 24.1 | 13.4 | CCN(CC(=O)O)c1ccc(F)cc1OCCOc1ccc(N(CC(=O)O)CC(=O)O)cc1F [5F NEAP-3, 1-(N-Ethylamino-5-fluorophenoxy)-2-(2-fluoro-4-aminophenoxy)ethane, N,N',N'-triacetic acid] |  |  |  |  | one of the fluorine resonances is pH sensitive, and the second is almost completely pH insensitive |

Reference: patent publication US5639906A, “Fluorescent and NMR sensitive pH indicators” (The United States of America as represented by the …, priority 1994, dated 1997)
